Assay results as given in ChEMBL document CHEMBL1909612, “AHL-dependent quorum sensing inhibition: synthesis and biological evaluation of α-(N-alkyl-carboxamide)-γ-butyrolactones and α-(N-alkyl-sulfonamide)-γ-butyrolactones” (Bioorg Med Chem Lett, 2011).
Calls of active or inactive are those of the source. The rule behind the calls is not given here.

How the values were obtained:
[1] = molecular target: T1, Transcriptional activator protein LuxR (Aliivibrio fischeri, UniProt P12746); experiment: Antagonist activity at Vibrio fischeri LuxR expressed in Escherichia coli NM522 containing Photorhabdus luminescens LuxCDABE assessed as inhibition of 3-oxo-C6-HSL-induced quorum sensing activation mediated bioluminescence after 4 to 5 hrs by bioluminescence assay; assay type: functional
T1 sequence (P12746 whole entry): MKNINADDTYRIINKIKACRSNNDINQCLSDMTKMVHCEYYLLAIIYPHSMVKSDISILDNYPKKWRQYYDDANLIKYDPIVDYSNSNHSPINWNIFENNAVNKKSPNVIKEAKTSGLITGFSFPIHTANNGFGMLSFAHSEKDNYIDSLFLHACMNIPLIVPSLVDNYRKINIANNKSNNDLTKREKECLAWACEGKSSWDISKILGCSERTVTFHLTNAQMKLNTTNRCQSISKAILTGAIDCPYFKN

[2] = molecular target: T2, Transcriptional activator protein LuxR (Aliivibrio fischeri) (UniProt P12746); experiment: Agonist activity at Vibrio fischeri LuxR expressed in Escherichia coli NM522 containing Photorhabdus luminescens LuxCDABE assessed as induction of quorum sensing activation mediated bioluminescence at 0.1 to 200 uM after 4 to 5 hrs by bioluminescence assay; assay type: functional
T2 sequence (whole entry): T1 sequence (P12746 whole entry)

For `CCCCCNC(=O)C1CCCC1O` (stereo not drawn), the IC50 [1] was 92 µM.
`CCCCCNS(=O)(=O)C1CCOC1=O` (stereo not drawn) was tested, and the Activity [2] was “inactive” and the IC50 [1] was 70 µM.
With `CCCCCNC(=O)C1CCOC1=O` (stereo not drawn) the Activity [2] was “inactive” and the IC50 [1] was 34 µM.
In the case of `CCCCCCNC(=O)C1CCOC1=O` (stereo not drawn), the Activity [2] is reported as “inactive” and the IC50 [1] is reported as 54 µM.
In the case of `CCCCCNC(=O)C1CCCC1O` (mixture of isomers) [listing 1 of 2 here], the IC50 [1] is reported as 200 µM.
With `CCCCN(C)C(=O)C1CCOC1=O` (stereo not drawn) the Activity [2] was “inactive”.
With `CCCCCNC(=O)C1CCCC1O` (mixture of isomers) [listing 2 of 2 here] the Activity [2] was “inactive”.
For `CCCCCCCCCCNC(=O)C1CCOC1=O` (stereo not drawn), the Activity [2] was “inactive” and the IC50 [1] was 75 µM.
With `CCCCCNC(=O)C1CCCC1=O` (stereo not drawn) the Activity [2] was “inactive” and the IC50 [1] was 40 µM.
For `CCCCNS(=O)(=O)C1CCOC1=O` (stereo not drawn), the Activity [2] was “inactive” and the IC50 [1] was > 200 µM.
For `CCCCNC(=O)C1CCOC1=O` (stereo not drawn), the Activity [2] was “inactive” and the IC50 [1] was 96 µM.
In the case of `CCCCCCCCNC(=O)C1CCOC1=O` (stereo not drawn), the Activity [2] is reported as “inactive” and the IC50 [1] is reported as 52 µM.
`CCCCCCN(C)C(=O)C1CCOC1=O` (stereo not drawn) was tested, and the Activity [2] was “inactive”.
`CCCCCCCCNC(=O)C1CCCC1=O` (stereo not drawn) was tested, and the Activity [2] was “inactive” and the IC50 [1] was 77 µM.
